Experimental findings from US5922319A, “Methods of treating eye conditions with human leukocyte elastase (HLE) inhibitory agents” (University of Kentucky Research Foundation, priority 1989, dated 1999) are described below.

Structures are written as SMILES.

In the assay the test system is rabbit corneas thermally burned (corneal scarring, fibroblast proliferation, neovascularization). Briefly: Thermal corneal burn in rabbit eyes, topical eye drops for two weeks, blind histopathology (H&E). It is filed as in vivo. The procedure: 26 rabbits were tranquilized with acetylpromazine maleate, 16 mg/kg intramuscularly. 2% lidocaine HCl eye drops were instilled in each eye for corneal anesthesia. Once the corneas were anesthetized, an eyelid speculum was inserted and the lids were then separated. The corneas of each eye were thermally coagulated with the tip of a battery-powered ophthalmic cautery. […] Two drops of solution A, B or C were instilled in designated treated eyes every 15 min for 6 hrs., then every 2 hrs. for 12 hrs. Following this, two eye drops of the same solutions were instilled four times a day. Daily eye examination was performed and photographs were taken. Two weeks after treatment the rabbits were sacrificed by […] intracardiac injection of T-61 ([…]). Subsequently, the rabbits, eyeballs were enucleated, the globes placed in Bounri's solution (10% formalin solution) and submitted for histopathology cell analysis. The eyes were fixed with 10% formalin solution and labeled right (R) and left (L), as appropriate sectioned and stained with H & E (hematoxylin & eosin stains). Histological sections were read by a pathologist without knowledge of the previously undertaken experimental procedure (blind test).

Turning to `COC(=O)CCC(=O)N[C@@H](C)C(=O)N[C@@H](CCCCNC(=O)OCc1ccccc1)C(=O)N1CCC[C@H]1C(=O)CN(C(=O)Sc1nnnn1-c1ccccc1)C(C)C` [Compound 2, S-(1-phenyl-5-tetrazoyl)-N-[methoxysuccinyl-alanyl-(Nε -Carbobenzoxy)lysylprolylmethyl]-N-isopropyl-thiocarbamate], the “Microscopic description of rabbit eyes: intensity of the reaction compared with the untreated specimen” value (Solution B, 10 μg/ml in normal saline with 1.4% w/v polyvinyl alcohol, eye drops, two weeks after corneal burn) is “The reaction is not quite as intense”. Moreover, the “Protection against scarring due to corneal burns (magnitude)” value (Solution C, 50 μg/ml, versus untreated eyes) is “tenfold”. In addition, where the note is “ophthalmic solutions B or C, rabbit corneal burn”, the “Overall effect of ophthalmic solutions on fibrosis, neovascularization and inflammation in corneal wound-healing” value was “effective in reducing fibrosis, neovascularization and inflammation”.
